In this assay the target is Tyrosine-protein kinase BTK (Homo sapiens, UniProt Q06187). The assay can be described thus: Lanthscreen Eu Kinase Binding assay: A Lanthscreen Eu Kinase Binding assay (Life Technologies) was performed to quantitate the ability of test compounds to bind to BTK. The assay is based on the binding and displacement of Alexa Fluor647-labeled Kinase Tracer #236 to the ATP-binding site of human full length His-tagged BTK (Life Technologies cat # PV3587) with TR-FRET detection using a europium-labeled anti-His antibody. The assay was assembled in 384-well low volume NBS black plates (Corning) where 2 nM BTK and test compound in DMSO at varying concentrations were pre-incubated for 30 min at 28° C. in assay buffer consisting of 50 mM HEPES, pH 7.4, 10 mM MgCl2, 1 mM EGTA. 100 μM Na3VO4 and 0.01% Brij 35. Then, 2 nM of Eu-anti His antibody and 30 nM Kinase Tracer were added and incubated for […] at 28° C. Following incubation, TR-FRET signal was read on an Envision plate reader (Excitation: 340 nm; Emissions: 615 and 665 nm). The 665: 615 nm emission ratio was calculated and converted to POC compared to control and blank wells.
Chain of Tyrosine-protein kinase BTK (Q06187 whole entry): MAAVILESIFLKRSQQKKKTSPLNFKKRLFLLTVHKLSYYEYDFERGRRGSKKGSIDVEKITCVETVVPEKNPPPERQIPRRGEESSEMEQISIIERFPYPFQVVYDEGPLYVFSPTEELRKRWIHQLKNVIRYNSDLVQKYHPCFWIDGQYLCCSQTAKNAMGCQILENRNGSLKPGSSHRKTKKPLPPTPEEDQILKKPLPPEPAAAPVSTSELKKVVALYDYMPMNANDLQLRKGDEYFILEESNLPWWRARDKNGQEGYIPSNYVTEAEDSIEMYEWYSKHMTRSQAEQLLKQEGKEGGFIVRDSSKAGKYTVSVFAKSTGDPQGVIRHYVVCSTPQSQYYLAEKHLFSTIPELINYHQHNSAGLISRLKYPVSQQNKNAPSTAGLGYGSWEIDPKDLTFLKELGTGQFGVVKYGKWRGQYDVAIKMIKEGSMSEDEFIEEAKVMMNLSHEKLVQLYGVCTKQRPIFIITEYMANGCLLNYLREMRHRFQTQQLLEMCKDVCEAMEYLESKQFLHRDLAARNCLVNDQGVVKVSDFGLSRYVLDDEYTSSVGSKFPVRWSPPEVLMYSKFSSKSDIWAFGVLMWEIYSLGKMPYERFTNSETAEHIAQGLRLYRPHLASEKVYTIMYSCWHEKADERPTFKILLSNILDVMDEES

This passage reports IC50 results from ChEMBL document CHEMBL5727601, “Isoquinolones as BTK inhibitors” (2020).

By IC50 is commonly meant the point on the concentration scale where inhibition reaches its midpoint.

With `C=CC(=O)N1CC(c2cc3cc(C4CC4)ccc3c(=O)n2-c2cccc(-c3ccnc(N)c3)c2CO)C1`, the IC50 was 0.9 nM.
